Literature values as cited in patent publication US9808427B2, “Swallowable N-acetylcysteine tablets” (ZAMBON S.P.A., priority 2013, dated 2017).

Legend:
[1] = 1200 mg per day (2 tablets of 600 mg)

- time to achieve pharmacologically active concentrations in pulmonary tissue and bronchial secretions (after taking the drug): approximately 3 hours
- elimination of NAC and its metabolites (in vivo): essentially via the kidneys
- absorption in the gastrointestinal tract (oral administration, man): quickly and completely absorbed
Compound: CC(=O)N[C@@H](CS)C(=O)O [NAC, N-acetylcysteine]
- efficacy and safety in long-term treatment of COPD [1]: effective and safe
